Experimental data from patent publication US11285135B2 (AMGEN INC., priority 2016, dated 2022).
Read-outs that look alike come from different tables or passages of the source.

What was measured:
[1] = test system: Phosphorylation of ERK½ in A549 cells; experiment: Phospho-ERK½ MSD Assay in A549 cells; format: cell-based; settings: 4 hours compound treatment, 10 ng/mL EGF for 10 min, read-out: p-ERK IC50 (A549)
Description: (§1) Phospho-ERK½ MSD Assay: MIA PaCa-2 (ATCC® CRL-1420™) and A549 (ATCC® CCL-185™) cells were cultured in RPMI 1640 Medium (ThermoFisher Scientific 11875093) containing 10% fetal bovine serum (ThermoFisher Scientific 16000044) and 1× penicillin-streptomycin-glutamine (ThermoFisher Scientific 10378016). Sixteen hours prior to compound treatment, MIA PaCa-2 or A549 cells were seeded in 96-well cell culture plates at a density of 25,000 cells/well and incubated at 37° C., 5% CO2. A compound dose-response titration was diluted in growth media, added to appropriate wells of a cell culture plate, and then incubated at 37° C., 5% CO2 for 4 hours. Following compound treatment, cells were stimulated with 10 ng/mL EGF (Roche 11376454001) for 10 min, washed with ice-cold Dulbecco's phosphate-buffered saline, no Ca^2+ or Mg^2+ (ThermoFisher Scientific 14190144), and then lysed in RIPA buffer (50 mM Tris-HCl pH 7.5, 1% Igepal, 0.5% sodium deoxycholate, 150 mM NaCl, and 0.5% sodium dodecyl sulfate) containing protease inhibitors (Roche 4693132001) and phosphatase inhibitors (Roche 4906837001). Cell lysates were stored frozen at −80° C. overnight. Phosphorylation of ERK½ in compound-treated lysates was assayed using Phospho-ERK½ Whole Cell Lysate kits (Meso Scale Discovery K151DWD) according to the manufacturer's protocol. Assay plates were read on a Meso Scale Discovery Sector Imager 6000, and data were analyzed using a 4-parameter logistic model to calculate IC50 values.

[2] = test system: Phosphorylation of ERK½ in MIA PaCa-2 cells; experiment: Phospho-ERK½ MSD Assay in MIA PaCa-2 cells; format: cell-based; settings: 4 hours compound treatment, 10 ng/mL EGF for 10 min, read-out: p-ERK IC50 (MIA PaCa-2)
Description: as §1

[3] = biological target: GDP-bound protein (aa 1-169), containing both G12C and C118A amino acid substitutions (Homo sapiens, UniProt P01116, C118A/G12C); experiment: Coupled Nucleotide Exchange Assay (SOS-mediated nucleotide exchange, AlphaScreen); format: biochemical; settings: 2 hours compound pre-incubation
Summary of the method: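 AlphaScreen signal after SOS (aa 564-1049)/GTP-driven exchange (1 h) on GDP-loaded His-[…] G12C/C118A (aa 1-169), following a 2 h compound pre-incubation in HEPES pH 7.4 buffer with 10 mM MgCl2 and 0.01% Triton X-100. IC50s fitted by 4-parameter logistic model.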

[4] = Homo sapiens, MIA PaCa-2, MIA PaCa-2 cells

GDP-bound protein (aa 1-169), containing both G12C and C118A amino acid substitutions, sequence (P01116 1-169 isoform P01116-2 G12C/C118A): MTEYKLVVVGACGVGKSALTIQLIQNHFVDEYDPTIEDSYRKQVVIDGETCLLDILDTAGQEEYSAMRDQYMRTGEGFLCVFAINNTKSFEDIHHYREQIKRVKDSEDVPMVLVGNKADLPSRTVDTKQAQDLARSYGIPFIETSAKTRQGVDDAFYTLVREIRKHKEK

IC50 ([1]; Homo sapiens, A549, A549 cells) [µM]	IC50 [2, 4] [µM]	Coupled exchange IC50 [3] [µM]	IC50 ([1]; A549 cells) [µM]	IC50 ([2]; MIA PaCa-2 cells) [µM]	SMILES
57.4	0.052	0.155	–	–	C=CC(=O)N1CCN(c2nc(=O)n(-c3ccccc3C(C)C)c3cc(-c4cc(O)cc(Cl)c4Cl)c(Cl)cc23)[C@@H](C)C1 [Example 9-1, 6-Chloro-7-(2,3-dichloro-5-hydroxyphenyl)-4-((2S)-2-methyl-4-(2-propenoyl)-1-piperazinyl)-1-(2-(2-propanyl)phenyl)-2(1H)-quinazolinone]
> 100	5.83	1.73	–	–	C=CC(=O)N1CCN(c2snc3c(F)c(-c4cc(O)cc5ccccc45)c(Cl)cc23)C(C(=O)OC)C1 (racemic) [Example 7-3, methyl 4-acryloyl-1-(5-chloro-7-fluoro-6-(3-hydroxynaphthalen-1-yl)benzo[c]isothiazol-3-yl)piperazine-2-carboxylate]
> 100	5.9	0.883	–	–	C=CC(=O)N1CC[C@H]2[C@@H]1CN2c1snc2c(F)c(-c3cc(O)cc4ccccc34)c(Cl)cc12 [Example 5-6, 1-((1S,5S)-6-(5-chloro-7-fluoro-6-(3-hydroxy-1-naphthalenyl)-2,1-benzothiazol-3-yl)-2,6-diazabicyclo[3.2.0]heptan-2-yl)-2-propen-1-one]
> 100	72.6	0.912	–	–	C=CC(=O)N1CCN(c2nnc(-c3c(C)ccc4[nH]ncc34)c3cc(-c4c(O)cccc4F)c(Cl)cc23)CC1 [Example 10-12, 1-(4-(7-chloro-6-(2-fluoro-6-hydroxyphenyl)-4-(5-methyl-1H-indazol-4-yl)-1-phthalazinyl)-1-piperazinyl)-2-propen-1-one]

Second part, the molecule before the results:

SMILES	IC50 ([1]; Homo sapiens, A549, A549 cells) [µM]	IC50 [2, 4] [µM]	Coupled exchange IC50 [3] [µM]	IC50 ([1]; A549 cells) [µM]	IC50 ([2]; MIA PaCa-2 cells) [µM]
C=CC(=O)N1CCN(c2snc3nc(-c4c(C)ccc5[nH]ncc45)c(Cl)cc23)C(C)C1 (single isomer, unassigned) [Example 2-6-2, 1-((3R)-4-(5-chloro-6-(5-methyl-1H-indazol-4-yl)[1,2]thiazolo[3,4-b]pyridin-3-yl)-3-methyl-1-piperazinyl)-2-propen-1-one or 1-((3S)-4-(5-chloro-6-(5-methyl-1H-indazol-4-yl)[1,2]thiazolo[3,4-b]pyridin-3-yl)-3-methyl-1-piperazinyl)-2-propen-1-one]	3.7	1.29	1.25	–	–
C=CC(=O)N1CCN(c2snc3nc(-c4cc(O)cc5ccccc45)c(Cl)cc23)C(C)C1 (single isomer, unassigned) [Example 2-5-1, 1-((3S)-4-(5-chloro-6-(3-hydroxy-1-naphthalenyl) [1,2]thiazolo[3,4-b]pyridin-3-yl)-3-methyl-1-piperazinyl)-2-propen-1-one or 1-((3R)-4-(5-chloro-6-(3-hydroxy-1-naphthalenyl) [1,2]thiazolo[3,4-b]pyridin-3-yl)-3-methyl-1-piperazinyl)-2-propen-1-one]	–	–	0.308	> 100	1.14
C=CC(=O)N1CCN(c2snc3nc(-c4cc(O)cc5ccccc45)c(Cl)cc23)C(C)C1 (racemic) [Example 2-5, 1-(4-(5-chloro-6-(3-hydroxy-1-naphthalenyl)[1,2]thiazolo[3,4-b]pyridin-3-yl)-3-methyl-1-piperazinyl)-2-propen-1-one]	3.7	5.46	0.684	–	–
C=CC(=O)N1CCN(c2snc3c(F)c(-c4cc(O)cc(Cl)c4Cl)c(Cl)cc23)CC1 [Example 3-22, 1-(4-(5-chloro-6-(2,3-dichloro-5-hydroxyphenyl)-7-fluoro-2,1-benzothiazol-3-yl)-1-piperazinyl)-2-propen-1-one]	> 33.3	1.12	0.249	–	–
C=CC(=O)N1CCN(c2snc3c(F)c(-c4cc(O)cc5ccccc45)c(Cl)cc23)CC1 [Example 3-1, 1-(4-(5-Chloro-7-fluoro-6-(3-hydroxynaphthalen-1-yl)benzo[c]isothiazol-3-yl)piperazin-1-yl)prop-2-en-1-one]	> 100	–	0.266	–	3.23
C=CC(=O)N1CCN(c2snc3nc(-c4cc(O)cc5ccccc45)c(Cl)cc23)CC1 [Example 2-1, 1-(4-(5-chloro-6-(3-hydroxy-1-naphthalenyl)[1,2]thiazolo[3,4-b]pyridin-3-yl)-1-piperazinyl)-2-propen-1-one]	3.7	1.89	0.341	–	–
C=CC(=O)N1CCN(c2snc3c(F)c(-c4c(C)ccc5[nH]ncc45)c(Cl)cc23)[C@@H](C)C1 [Example 1-10, 1-((3S)-4-(5-chloro-7-fluoro-6-(5-methyl-1H-indazol-4-yl)-2,1-benzothiazol-3-yl)-3-methyl-1-piperazinyl)-2-propen-1-one]	11.1	1.09	0.381	–	–
C=CC(=O)N1CCN(c2snc3c(F)c(-c4cc(O)ccc4Br)c(Cl)cc23)CC1 [Example 1-1, 1-(4-(6-(2-bromo-5-hydroxyphenyl)-5-chloro-7-fluorobenzo[c]isothiazol-3-yl)piperazin-1-yl)prop-2-en-1-one]	> 33.3	2.55	0.355	–	–
C=CC(=O)N1CCN(c2nnc(C3CC3)c3cc(-c4c(O)cccc4F)c(Cl)cc23)CC1 [Example 12, 1-(4-(7-Chloro-4-cyclopropyl-6-(2-fluoro-6-hydroxyphenyl)-1-phthalazinyl)-1-piperazinyl)-2-propen-1-one]	> 100	25.9	3.34	–	–
C=CC(=O)N1CCN(c2nnc(-c3ccccc3OC)c3cc(-c4c(O)cccc4F)c(Cl)cc23)CC1 [Example 10-2, 1-(4-(7-chloro-6-(2-fluoro-6-hydroxyphenyl)-4-(2-methoxyphenyl)phthalazin-1-yl)piperazin-1-yl)prop-2-en-1-one]	> 100	36.1	1.93	–	–
C=CC(=O)N1CCN(c2snc3c(F)c(-c4cc(O)cc5ccccc45)c(Cl)cc23)[C@H](C)C1 [Example 1-21, 1-((3R)-4-(5-chloro-7-fluoro-6-(3-hydroxy-1-naphthalenyl)-2,1-benzothiazol-3-yl)-3-methyl-1-piperazinyl)-2-propen-1-one]	> 100	4.89	1.30	–	–
C=CC(=O)N1CCN(c2nc(=O)n(-c3ccccc3C(C)C)c3cc(-c4c(C)ccc5[nH]ncc45)c(Cl)cc23)CC1 (single isomer, unassigned) [Example 11-1-1, 6-chloro-7-(5-methyl-1H-indazol-4-yl)-1-(2-(2-propanyl)phenyl)-4-(4-(2-propenoyl)-1-piperazinyl)-2(1H)-quinazolinone]	42.9	–	0.231	–	0.247
C=CC(=O)N1CCN(c2snc3c(F)c(-c4cc(O)ccc4Cl)c(Cl)cc23)CC1 [Example 3-11, 1-(4-(5-chloro-6-(2-chloro-5-hydroxyphenyl)-7-fluoro-2,1-benzothiazol-3-yl)-1-piperazinyl)-2-propen-1-one]	11.1	3.06	0.457	–	–
C=CC(=O)N1CCN(c2nc(=O)n(-c3ccccc3C(C)C)c3cc(-c4c(C)ccc5[nH]ncc45)c(Cl)cc23)[C@@H](C)C1 (single isomer, unassigned) [Example 11-2-1]	–	–	0.219	10	0.054
